Laboratory results from US8236785B2, “Method of treating or preventing infertility in a female mammal and pharmaceutical kit for use in such method” (Pantarhei Bioscience B.V., priority 2007, dated 2012).

Key:
ERα receptor = molecular target: T1, ERα receptor (Homo sapiens, UniProt P03372); test: Estrogen receptor affinity; type: binding
T1 sequence (P03372 1-595): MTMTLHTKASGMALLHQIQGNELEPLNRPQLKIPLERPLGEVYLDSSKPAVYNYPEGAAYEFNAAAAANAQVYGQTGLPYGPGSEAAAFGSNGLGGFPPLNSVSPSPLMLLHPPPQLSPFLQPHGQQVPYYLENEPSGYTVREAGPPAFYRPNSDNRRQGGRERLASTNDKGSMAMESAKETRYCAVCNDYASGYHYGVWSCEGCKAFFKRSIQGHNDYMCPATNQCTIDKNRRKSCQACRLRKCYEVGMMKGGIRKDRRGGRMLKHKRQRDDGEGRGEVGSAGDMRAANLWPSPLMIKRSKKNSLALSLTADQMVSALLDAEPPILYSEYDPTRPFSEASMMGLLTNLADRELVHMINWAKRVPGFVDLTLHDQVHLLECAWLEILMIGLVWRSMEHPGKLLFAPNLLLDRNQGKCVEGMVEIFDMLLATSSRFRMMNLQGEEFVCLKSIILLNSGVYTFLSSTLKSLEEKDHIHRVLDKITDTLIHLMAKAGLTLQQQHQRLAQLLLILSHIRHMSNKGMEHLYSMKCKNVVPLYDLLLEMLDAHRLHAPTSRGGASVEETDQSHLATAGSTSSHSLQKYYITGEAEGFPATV

premature LH-surge [1] = test: Randomised controlled dose-finding clinical trial of premature LH-surge prevention in COH/IVF, E4 versus ganirelix; type: in vivo, women
Protocol: An open-label, randomised, controlled, dose-finding, multi-centre clinical trial is performed to investigate and compare the efficacy, safety and tolerability of premature LH-surge prevention in women undergoing COH/IVF using either E4 in an oral dosage of 1, 5, 10, 20, 40 or 80 mg per day or a daily subcutaneous injection of 0.25 mg ganirelix. Group size is 30 women, so in total 210 patients participate in the trial. E4/ganirelix treatment is started on day 6 of FSH treatment up to and including the day of hCG administration. Further procedures are similar to example 1.

ERβ receptor = ERβ receptor (Homo sapiens, UniProt Q92731); test: Estrogen receptor affinity; type: binding
premature LH-surge [2] = test: Open-label uncontrolled clinical trial of premature LH-surge prevention in women undergoing COH/IVF; type: in vivo; settings: daily oral 40 mg
Protocol: An open-label, uncontrolled, single centre clinical trial is performed to investigate the efficacy, safety and tolerability of premature LH-surge prevention in 10 women undergoing IVF treatment for infertility by Controlled Ovarian Hyperstimulation (COH), using a daily oral dosage of 40 mg estetrol (E4) from day 6 of FSH treatment up to and including the day of hCG administration to resume meiosis and induce lutëinisation. Oocytes are retrieved 30-38 hours after hCG administration, fertilised in vitro and two days later no more than two embryos are transferred to the uterus of the patient. Standard luteal support is prescribed.
Ultrasonographic monitoring of follicle growth and endometrial thickness are performed during this treatment procedure including extensive and repeated hormonal analysis and measurement of E4 levels extending into the luteal phase after embryo transfer.

Sequence of ERβ receptor (Q92731 whole entry): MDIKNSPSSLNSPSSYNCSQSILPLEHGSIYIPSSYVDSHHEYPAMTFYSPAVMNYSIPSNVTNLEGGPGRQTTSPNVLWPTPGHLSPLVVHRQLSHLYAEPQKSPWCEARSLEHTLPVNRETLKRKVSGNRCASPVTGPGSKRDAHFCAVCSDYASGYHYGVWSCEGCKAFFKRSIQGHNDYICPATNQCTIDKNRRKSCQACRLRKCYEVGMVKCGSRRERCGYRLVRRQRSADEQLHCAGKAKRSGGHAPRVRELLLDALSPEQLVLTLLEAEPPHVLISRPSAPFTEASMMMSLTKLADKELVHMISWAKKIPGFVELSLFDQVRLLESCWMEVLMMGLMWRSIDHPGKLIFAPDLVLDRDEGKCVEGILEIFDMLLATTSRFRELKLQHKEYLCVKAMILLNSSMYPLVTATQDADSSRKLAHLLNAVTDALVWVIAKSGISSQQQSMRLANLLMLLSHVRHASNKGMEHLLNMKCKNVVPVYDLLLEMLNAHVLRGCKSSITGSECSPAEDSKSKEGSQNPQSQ

Compound: C[C@]12CC[C@@H]3c4ccc(O)cc4CC[C@H]3[C@@H]1[C@@H](O)[C@@H](O)[C@@H]2O [estetrol, 1,3,5 (10)-estratrien-3,15α,16α,17β-tetrol]
- affinity for the ERα receptor (ERα receptor): relatively high affinity
- prevention of premature LH-surges compared with ganirelix (premature LH-surge [1]; higher oral dosages vs daily subcutaneous 0.25 mg ganirelix): equally effective to parenteral ganirelix
- prevention of premature LH-surges (premature LH-surge [1]; oral 1, 5, 10, 20, 40 or 80 mg per day): dose dependent prevention of premature LH-surges
- tolerability / side-effects (premature LH-surge [1]; oral 1-80 mg per day): well tolerated and without significant side-effects
- vital pregnancy rates compared with ganirelix (premature LH-surge [1]; oral E4 vs daily subcutaneous 0.25 mg ganirelix): trend to be superior to ganirelix treated patients
- affinity for the ERβ receptor (ERβ receptor): relatively low affinity
- tolerability / side-effects (premature LH-surge [2]): well tolerated without significant side-effects
- prevention of a premature LH-surge (premature LH-surge [2]; from day 6 of FSH treatment up to and including day of hCG, 10 women): efficacious in preventing a premature LH-surge
- vital pregnancies (premature LH-surge [2]; COH/IVF with embryo transfer): Vital pregnancies occur
